Data: patent US5532229A, “Topical administration of vitamin D to mammals” (priority 1994, dated 1996)
“Also recorded” adds a separate entry of the source.

Experiments:
[1] = Experiment 3: serum 1,25(OH)2 D3 during changes in dietary calcium; assay type: in vivo, Male Wistar rats
Source text: Efficacy in the long-term: ability of oral and dermal vitamin D3 delivery to influence serum 1,25(OH)2 D3 levels in response to changes in dietary calcium.
Male, Wistar rats were obtained at 120-130 g, and placed on a 0.01% calcium, 0.7% phosphate diet that was vitamin D deficient (Teklad Test Diets, Madison, WI) this was for one week to help deplete vitamin D stores. For the next three weeks the rats were fed the vitamin D-deficient diet, but with normal, 0.5%, calcium. […]
Biochemical measurements. 1,25(OH)2 D3 in serum was measured by calf-thymus receptor-binding assay after initial purification of 1,25(OH)2 D3 with C18-OH cartridges (5). For the serum volumes that were minimal, serum was measured out in 50 μL increments, and the final result was adjusted for the volume of sample analyzed. […] The material eluting as 1,25(OH)2 D3 was evaporated and redissolved in acetonitrile: water for further purification with C18-OH cartridges and quantitation by thymus receptor assay, as described for serum. […]

[2] = Experiment 4: urinary calcium to creatinine ratio after gastric or dermal vitamin D3; assay type: in vivo, rats
Protocol: Each point represents the mean ±SEM of 7 normal, 250-g rats.
Toxicity: Short-term responses to increasing doses of vitamin D3 given dermally or by gastric tube.
To compare the efficacy of increasing doses of vitamin D3 in the short term. A fatal oral vitamin D3 dose is 14 days of 2600 μg/day (Sheppard RM and DeLuca HF, Arch Biochem Biophys 1980; 202: 43-55). The present experiment was designed to compare effects of doses up to this level, given by gastric tube or dermally.

[3] = Experiment 5: toxic effects after 2 weeks of high doses of dermal or oral vitamin D3; assay type: in vivo, Male Wistar rats
Protocol: Toxicity: Long-term effects of increasing doses of vitamin D3 given dermally or by gastric tube.
This experiment was to compare potential toxic effects of vitamin D3 given for a 2 wk period, at the near-fatal dose of 800 μg per day by gastric tube, or by dermal administration at 800 μg/day or 2600 μg/day. Another goal was find evidence of saturable dermal uptake by including [^14 C]-vitamin D3 to monitor its removal from the skin at the high doses of vitamin D3.
Male Wistar rats, 190±10 g were obtained and divided into three groups of 7. They were treated for 2 weeks with one the following: 2000 nmol/day of vitamin D3 by gastric tube; 800 μg/day applied to a 2×2 cm patch of skin on the back; 2600 μg/day skin. The day before killing, 66,000 counts per minute of [^14 C]-vitamin D3 was applied along with the dermal dose to permit a determination of uptake from the skin. The rats were killed after two weeks for analysis of serum, urine, kidney, and aorta. The calcium in urine and acid-treated homogenate of kidney was measured by chemical colorimetry; aorta calcium was measured by treating with nitric acid measuring calcium by atomic absorption.

C=C1CC[C@H](O)C/C1=C/C=C1\CCC[C@]2(C)[C@@H]([C@H](C)CCCC(C)C)CC[C@@H]12 [vitamin D3]
difference between the two routes in suppression of serum 1,25(OH)2 D3 levels ([1]; 20 nmol/250 g/day): no significant difference between the two routes
serum 1,25(OH)2 D3, effect of supplementation ([1]; 8 μg/day, gastric or dermal, all levels of calcium intake): lower serum 1,25(OH)2 D3 concentrations; also recorded: lower serum 1,25(OH)2 D3 at every level of calcium intake
increase in calcium in the urine ([2]; highest dermal dose): 2.5 -fold
increase in calcium in the urine ([2]; highest gastric dose): 6 -fold
urinary calcium (above the usual rat normal) ([3]; all treatments): > 1 μmol/mmol creatinine
serum calcium (above the normal rat value) ([3]; all treatments, 2 weeks): > 2.4 mmol/L
calcium accumulation in kidney and aorta ([3]; by gastric tube, 2 weeks): substantial in both the kidney and the aorta
Urine Ca/create Day 4 ([3]; dermal 800 μg/day): 7.9
Urine Ca/create Day 13 ([3]; dermal 800 μg/day): 10.0
Weight gain ([3]; dermal 800 μg/day): 91 g/2 wk
Total Aorta Calcium ([3]; dermal 800 μg/day, 2 weeks): < 10 nmol
Total Renal Calcium ([3]; dermal 800 μg/day, 2 weeks): 13.3 µmol/L
Urine Ca/create Day 4 ([3]; dermal 2600 μg/day): 10.3
Urine Ca/create Day 13 ([3]; dermal 2600 μg/day): 10.8
Weight gain ([3]; dermal 2600 μg/day): 76 g/2 wk
Total Aorta Calcium ([3]; dermal 2600 μg/day, 2 weeks): < 10 nmol
Total Renal Calcium ([3]; dermal 2600 μg/day, 2 weeks): 13.3 µmol/L
difference in serum 25(OH)D3 between the two dermal groups ([3]; dermal 800 vs 2600 μg/day): no statistical difference
Weight gain ([3]; dermal, same or higher doses, 2 wk): normal weight gain
calcium accumulation in kidney and aorta ([3]; dermally treated, 2 weeks): no evidence of either effect
Urine Ca/create Day 4 ([3]; gastric 800 μg/day): 12.0
Urine Ca/create Day 13 ([3]; gastric 800 μg/day): 9.9
Weight gain ([3]; gastric 800 μg/day): 7 g/2 wk
Total Aorta Calcium ([3]; gastric 800 μg/day, 2 weeks): 361 nmol
Total Renal Calcium ([3]; gastric 800 μg/day, 2 weeks): 77 µmol/L
serum 1,25(OH)2 D3, gastric vs skin groups ([3]; gastric, 2 weeks): lower serum 1,25(OH)2 D3 concentrations than with either skin group
Weight gain ([3]; near-toxic gastric dose, 2 wk): prevented the rats from gaining weight
